Our source for the Ki values is ChEMBL document CHEMBL1135604, “Geometry-affinity relationships of the selective serotonin receptor ligand 9-(aminomethyl)-9,10-dihydroanthracene” (J Med Chem, 2002).

Where only a bound is given, the exact number is not on record here.

Sequence of 5-hydroxytryptamine receptor 2A (Rattus norvegicus) (P14842 whole entry, looked up): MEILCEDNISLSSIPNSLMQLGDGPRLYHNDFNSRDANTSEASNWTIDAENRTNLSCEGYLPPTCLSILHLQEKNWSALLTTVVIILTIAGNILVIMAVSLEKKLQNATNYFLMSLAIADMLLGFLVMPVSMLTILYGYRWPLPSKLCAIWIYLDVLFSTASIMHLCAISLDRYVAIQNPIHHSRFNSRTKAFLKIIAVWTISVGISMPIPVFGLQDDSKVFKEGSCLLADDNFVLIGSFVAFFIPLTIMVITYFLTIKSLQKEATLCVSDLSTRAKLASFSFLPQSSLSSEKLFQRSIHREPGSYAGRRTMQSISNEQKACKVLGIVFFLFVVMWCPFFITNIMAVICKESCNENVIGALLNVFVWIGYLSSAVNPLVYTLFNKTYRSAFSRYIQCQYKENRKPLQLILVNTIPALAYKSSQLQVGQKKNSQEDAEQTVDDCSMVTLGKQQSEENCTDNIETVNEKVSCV

This assay has as its target 5-hydroxytryptamine receptor 2A (Rattus norvegicus) (UniProt P14842). The assay is described as follows: Binding affinity was performed using [3H]ketanserin as the radioligand and stably transfected NIH3T3 cells expressing the 5-hydroxytryptamine 2A receptor (GF-62 cells).
Take `NCC12CC(c3ccccc31)c1ccccc12`: the affinity, expressed as Ki, was 6.78 µM.
As for `NCCc1ccccc1Cc1ccccc1`, the figure is 1.81 µM.
As for `CC1(C)c2ccccc2C(CN)c2ccccc21`, the figure is 0.33 µM; as for `NCC1CC2c3ccccc3C1c1ccccc12` (centres undefined), 9.53 µM; as for `NC1CC2c3ccccc3C1c1ccccc12` (centres undefined), over 10 µM.
As for `NCC1c2ccccc2CCc2ccccc21`, the figure is 0.112 µM; as for `c1ccc2c(c1)Cc1cccc3c1C2CNC3` (centres undefined), 0.296 µM.
`CC(N)C1c2ccccc2Cc2ccccc21` (centres undefined) gave a Ki of 0.193 µM. Against the preceding molecule, the Ki is about 1.5-fold lower.
In the case of `c1ccc2c(c1)C1c3ccccc3C2C2NC12` (centres undefined), the Ki is over 10 µM.
The same measure for `NCc1c2ccccc2cc2ccccc12`: 2.3 µM; for `CC1(CN)c2ccccc2Cc2ccccc21`: 0.065 µM; for `NCC1Cc2ccccc2-c2ccccc21` (centres undefined): 0.711 µM.
As for `NCC12CCC(c3ccccc31)c1ccccc12`, the figure is 0.77 µM; as for `NCC1CCCc2ccccc21` (centres undefined), over 10 µM.

For orientation: Ki means a dissociation constant, usually derived from enzyme kinetics or from competition with a known ligand.
